The values below come from patent US7605174B2, “Indane derivatives as modulators of ion channels” (Vertex Pharmaceuticals Incorporated, priority 2005, dated 2009).

Usually IC50 stands for the concentration that inhibits the measured activity by half.

One assay concerns the target T1, NaV1.3 (Homo sapiens, UniProt Q9NY46).
Experiment: not given
To be noted: read-out: TTX IC50; cited from earlier work.
Target sequence in this assay (Q9NY46 whole entry, looked up): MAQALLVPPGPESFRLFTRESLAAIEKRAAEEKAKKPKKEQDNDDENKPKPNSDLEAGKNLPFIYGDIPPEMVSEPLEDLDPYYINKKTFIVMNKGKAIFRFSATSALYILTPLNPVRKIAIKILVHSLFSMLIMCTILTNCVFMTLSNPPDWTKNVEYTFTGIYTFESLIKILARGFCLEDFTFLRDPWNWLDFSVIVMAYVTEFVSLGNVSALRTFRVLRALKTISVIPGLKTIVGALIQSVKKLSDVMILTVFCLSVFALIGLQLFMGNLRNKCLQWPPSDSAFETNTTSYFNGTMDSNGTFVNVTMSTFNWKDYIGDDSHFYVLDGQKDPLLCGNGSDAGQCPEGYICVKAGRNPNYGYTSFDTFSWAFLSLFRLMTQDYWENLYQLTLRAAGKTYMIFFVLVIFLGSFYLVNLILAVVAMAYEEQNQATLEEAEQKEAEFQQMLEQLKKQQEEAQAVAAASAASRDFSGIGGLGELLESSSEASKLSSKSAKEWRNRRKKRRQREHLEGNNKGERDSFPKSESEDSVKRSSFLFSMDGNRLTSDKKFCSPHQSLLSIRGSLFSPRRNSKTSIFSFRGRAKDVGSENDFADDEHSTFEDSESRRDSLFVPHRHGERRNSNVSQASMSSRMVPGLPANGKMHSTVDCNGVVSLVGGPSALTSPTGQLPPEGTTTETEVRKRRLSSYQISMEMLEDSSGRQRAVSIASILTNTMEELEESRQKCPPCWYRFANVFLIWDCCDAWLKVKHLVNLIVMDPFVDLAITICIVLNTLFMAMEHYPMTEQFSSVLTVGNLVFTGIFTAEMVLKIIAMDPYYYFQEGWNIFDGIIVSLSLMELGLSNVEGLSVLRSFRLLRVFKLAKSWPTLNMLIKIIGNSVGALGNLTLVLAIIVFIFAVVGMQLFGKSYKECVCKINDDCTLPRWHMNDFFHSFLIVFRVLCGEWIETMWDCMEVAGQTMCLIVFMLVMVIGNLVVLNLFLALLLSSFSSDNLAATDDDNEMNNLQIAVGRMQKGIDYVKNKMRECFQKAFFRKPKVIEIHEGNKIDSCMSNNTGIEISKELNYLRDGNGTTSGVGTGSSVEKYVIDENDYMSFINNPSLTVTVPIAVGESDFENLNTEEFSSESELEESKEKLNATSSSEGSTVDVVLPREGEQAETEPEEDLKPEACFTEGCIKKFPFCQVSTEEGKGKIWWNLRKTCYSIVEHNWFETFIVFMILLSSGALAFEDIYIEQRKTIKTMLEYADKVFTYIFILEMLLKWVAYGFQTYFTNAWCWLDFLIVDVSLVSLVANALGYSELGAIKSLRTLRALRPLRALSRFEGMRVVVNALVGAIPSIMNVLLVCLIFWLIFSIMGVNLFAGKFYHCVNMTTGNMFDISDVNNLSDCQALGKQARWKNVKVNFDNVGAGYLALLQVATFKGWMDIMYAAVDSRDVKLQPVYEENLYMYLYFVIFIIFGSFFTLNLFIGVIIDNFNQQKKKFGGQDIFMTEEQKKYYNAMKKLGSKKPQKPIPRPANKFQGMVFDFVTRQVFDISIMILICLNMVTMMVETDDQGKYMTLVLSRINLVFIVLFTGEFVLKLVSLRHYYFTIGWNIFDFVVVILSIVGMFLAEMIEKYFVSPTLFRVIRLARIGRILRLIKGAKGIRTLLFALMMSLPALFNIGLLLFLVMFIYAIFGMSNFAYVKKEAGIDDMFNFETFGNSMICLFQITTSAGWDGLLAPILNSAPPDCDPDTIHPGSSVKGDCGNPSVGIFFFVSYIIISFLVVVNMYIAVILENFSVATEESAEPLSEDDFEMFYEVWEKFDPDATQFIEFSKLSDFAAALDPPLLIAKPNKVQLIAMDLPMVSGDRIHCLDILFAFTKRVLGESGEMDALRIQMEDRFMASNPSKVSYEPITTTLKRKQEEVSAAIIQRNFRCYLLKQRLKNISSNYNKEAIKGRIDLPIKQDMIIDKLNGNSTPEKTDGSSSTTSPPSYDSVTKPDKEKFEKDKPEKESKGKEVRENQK
With `NC1=N[C@H](O)[C@H]2[C@H]3O[C@]4(O)O[C@@H]([C@@H](O)[C@@]2(N1)[C@@H]4O)[C@]3(O)CO` [TTX, tetrodotoxin], the IC50 was 15 nM.

Test system in the next assay: not given
Experiment: not given
To be noted: in vivo; cited from earlier work.
As to `NCC1(CC(=O)O)CCCCC1` [Gabapentin], the “patients in whom the drug works” value is reported as 60%.

Another assay has as its target T1, NaV1.3. Kind of assay: Activity against NaV 1.3 channel (optical membrane potential assay, electrical stimulation).
Details: not given
Details: expressed in transfected cells; host or cells: HEK293. The format is cell-based. The procedure:
Compounds of the invention are useful as antagonists of voltage-gated sodium ion channels. Antagonist properties of test compounds were assessed as follows. Cells expressing the NaV of interest were placed into microtiter plates. After an incubation period, the cells were stained with fluorescent dyes sensitive to the transmembrane potential. The test compounds were added to the microtiter plate. The cells were stimulated with either a chemical or electrical means to evoke a NaV dependent membrane potential change from unblocked channels, which was detected and measured with trans-membrane potential-sensitive dyes. Antagonists were detected as a decreased membrane potential response to the stimulus. The optical membrane potential assay utilized voltage-sensitive FRET sensors described by Gonzalez and Tsien (See, Gonzalez, J. E. and R. Y. Tsien (1995) “Voltage sensing by fluorescence resonance energy transfer in single cells” Biophys J 69(4): 1272-80, and Gonzalez, J. E. and R. Y. Tsien (1997) “Improved indicators of cell membrane potential that use fluorescence resonance energy transfer” Chem Biol 4(4): 269-77) in combination with instrumentation for measuring fluorescence changes such as the Voltage/Ion Probe Reader (VIPR®) (See, Gonzalez, J. E., K. Oades, et al. (1999) “Cell-based assays and instrumentation for screening ion-channel targets” Drug Discov Today 4(9): 431-439).
The following is an example of how NaV1.3 inhibition activity is measured using the optical membrane potential method#2. Other subtypes are performed in an analogous mode in a cell line expressing the NaV of interest.
HEK293 cells stably expressing NaV1.3 are plated into 96-well microtiter plates. After an appropriate incubation period, the cells are stained with the voltage sensitive dyes CC2-DMPE/DiSBAC2(3) as follows.
2×CC2-DMPE=20 μM CC2-DMPE: 10 mM CC2-DMPE is vortexed with an equivalent volume of 10% pluronic, followed by vortexing in required amount of HBSS containing 10 mM HEPES. Each cell plate will require 5 mL of 2×CC2-DMPE. 50 μL of 2×CC2-DMPE is to wells containing washed cells, resulting in a 10 μM final staining concentration. The cells are stained for 30 minutes in the dark at RT.
2×DISBAC2(3) with ABSC1=6 μM DISBAC2(3) and 1 mM ABSC1: The required amount of 10 mM DISBAC2(3) is added to a 50 ml conical tube and mixed with 1 μL 10% pluronic for each mL of solution to be made and vortexed together. Then HBSS/HEPES is added to make up 2× solution. Finally, the ABSC1 is added.
The 2×DiSBAC2(3) solution can be used to solvate compound plates. Note that compound plates are made at 2× drug concentration. Wash stained plate again, leaving residual volume of 50 μL. Add 50 uL/well of the 2×DiSBAC2(3) w/ABSC1. Stain for 30 minutes in the dark at RT.
The electrical stimulation instrument and methods of use are described in ION Channel Assay Methods PCT/US01/21652, herein incorporated by reference. The instrument comprises a microtiter plate handler, an optical system for exciting the coumarin dye while simultaneously recording the coumarin and oxonol emissions, a waveform generator, a current- or voltage-controlled amplifier, and a device for inserting electrodes in well. Under integrated computer control, this instrument passes user-programmed electrical stimulus protocols to cells within the wells of the microtiter plate.
• 1. Insert or use electrodes into each well to be assayed. • 2. Use the current-controlled amplifier to deliver stimulation wave pulses for 3 s. Two seconds of pre-stimulus recording are performed to obtain the un-stimulated intensities. Five seconds of post-stimulation recording are performed to examine the relaxation to the resting state.
Data are analyzed and reported as normalized ratios of background-subtracted emission intensities measured in the 460 nm and 580 nm channels. Background intensities are then subtracted from each assay channel. […]
Target sequence in this assay (Q9NY46 whole entry): as the sequence (Q9NY46 whole entry, looked up) above
Turning to `O=C(NC1Cc2ccc(S(=O)(=O)Nc3nccs3)cc2C1)Oc1cccc(C(F)(F)F)c1` (stereo not shown) [Compound 1], the IC50 is below 2000 nM. As for `O=C(NC1Cc2ccc(S(=O)(=O)Nc3nccs3)cc2C1)Oc1ccc(Cl)cc1` (stereo not shown) [Compound 11], the IC50 was below 2000 nM.

Staying with this assay, now noted: NaV 1.3 channel; read-out: IC50.
Turning to `O=C(COc1ccc(Cl)cc1)NC1Cc2ccc(S(=O)(=O)Nc3nccs3)cc2C1` (stereo not shown) [Compound 2], the IC50 was below 2000 nM.

Consider `O=C(NC1Cc2ccc(S(=O)(=O)Nc3nccs3)cc2C1)c1cc(F)ccc1F` (stereo not shown) [Compound 3], for which the IC50 is above 5000 nM. On to `O=C(CCn1ccc2cc(Cl)ccc21)NC1Cc2ccc(S(=O)(=O)Nc3nccs3)cc2C1` (stereo not shown) [Compound 4, 3-(5-Chloro-indol-1-yl)-N-[5-(thiazol-2-ylsulfamoyl)-indan-2-yl]-propionamide], for which the IC50 is below 2000 nM. For `O=C(COc1ccc(F)c(Cl)c1)NC1Cc2ccc(S(=O)(=O)Nc3nccs3)cc2C1` (stereo not shown) [Compound 5], the IC50 is below 2000 nM.

In the case of `O=C(NC1Cc2ccc(S(=O)(=O)Nc3nccs3)cc2C1)c1ccc(F)cc1` (stereo not shown) [Compound 6, 4-Fluoro-N-[5-(thiazol-2-ylsulfamoyl)-indan-2-yl]-benzamide], the IC50 is above 5000 nM. `O=C(NC1Cc2ccc(S(=O)(=O)Nc3nccs3)cc2C1)c1c(F)cc(F)cc1F` (stereo not shown) [Compound 7]: the IC50 was above 5000 nM. Regarding `O=C(NC1Cc2ccc(S(=O)(=O)Nc3nccs3)cc2C1)c1ccc(Cl)c(Cl)c1` (stereo not shown) [Compound 8], the half-inhibitory concentration (IC50) fell in the range of 2000 to 5000 nM.

Consider `O=C(COc1ccccc1)NC1Cc2ccc(S(=O)(=O)Nc3nccs3)cc2C1` (stereo not shown) [Compound 9], for which the IC50 was above 5000 nM.

`O=C(NC1Cc2ccc(S(=O)(=O)Nc3nccs3)cc2C1)c1ccc(C(F)(F)F)cc1` (stereo not shown) [Compound 10]: the half-inhibitory concentration (IC50) was above 5000 nM.

For the compound `CC(C)(C)c1ccc(OCC(=O)NC2Cc3ccc(S(=O)(=O)Nc4nccs4)cc3C2)cc1` (stereo not shown) [Compound 12], the IC50 was below 2000 nM. Still for that read-out and setting: the value for `O=C(COc1ccc(F)cc1)NC1Cc2ccc(S(=O)(=O)Nc3nccs3)cc2C1` (stereo not shown) [Compound 13] was 2000 to 5000 nM; that for `O=C(NC1Cc2ccc(S(=O)(=O)Nc3nccs3)cc2C1)c1ccccc1F` (stereo not shown) [Compound 14] was above 5000 nM; that for `O=C(CCOc1ccccc1)NC1Cc2ccc(S(=O)(=O)Nc3nccs3)cc2C1` (stereo not shown) [Compound 15] was above 5000 nM. Same read-out and setting: in the case of `O=C(COc1cccc(Cl)c1)NC1Cc2ccc(S(=O)(=O)Nc3nccs3)cc2C1` (stereo not shown) [Compound 16, 2-(3-Chloro-phenoxy)-N-[5-(thiazol-2-ylsulfamoyl)-indan-2-yl]-acetamide] it was below 2000 nM; in that of `CC(C(=O)NC1Cc2ccc(S(=O)(=O)Nc3nccs3)cc2C1)n1ccc2ccccc21` (stereo not shown) [Compound 17, 2-Indol-1-yl-N-[5-(thiazol-2-ylsulfamoyl)-indan-2-yl]-propionamide], 2000 to 5000 nM.
